Consider 12 compounds from patent US20230295197A1, “STAT5 and STAT6 Degraders and Uses Thereof” (REGENTS OF THE UNIVERSITY OF MICHICAN, priority 2022, published 2023).

Some results are limits rather than exact numbers.

The experiment addresses T1, STAT6 (Homo sapiens, UniProt P42226).
T1 construct: endogenous in cells; host or cells: MOLM-16, KU-812, SKNO1, MB231, L1236
T1 sequence (P42226 1-847): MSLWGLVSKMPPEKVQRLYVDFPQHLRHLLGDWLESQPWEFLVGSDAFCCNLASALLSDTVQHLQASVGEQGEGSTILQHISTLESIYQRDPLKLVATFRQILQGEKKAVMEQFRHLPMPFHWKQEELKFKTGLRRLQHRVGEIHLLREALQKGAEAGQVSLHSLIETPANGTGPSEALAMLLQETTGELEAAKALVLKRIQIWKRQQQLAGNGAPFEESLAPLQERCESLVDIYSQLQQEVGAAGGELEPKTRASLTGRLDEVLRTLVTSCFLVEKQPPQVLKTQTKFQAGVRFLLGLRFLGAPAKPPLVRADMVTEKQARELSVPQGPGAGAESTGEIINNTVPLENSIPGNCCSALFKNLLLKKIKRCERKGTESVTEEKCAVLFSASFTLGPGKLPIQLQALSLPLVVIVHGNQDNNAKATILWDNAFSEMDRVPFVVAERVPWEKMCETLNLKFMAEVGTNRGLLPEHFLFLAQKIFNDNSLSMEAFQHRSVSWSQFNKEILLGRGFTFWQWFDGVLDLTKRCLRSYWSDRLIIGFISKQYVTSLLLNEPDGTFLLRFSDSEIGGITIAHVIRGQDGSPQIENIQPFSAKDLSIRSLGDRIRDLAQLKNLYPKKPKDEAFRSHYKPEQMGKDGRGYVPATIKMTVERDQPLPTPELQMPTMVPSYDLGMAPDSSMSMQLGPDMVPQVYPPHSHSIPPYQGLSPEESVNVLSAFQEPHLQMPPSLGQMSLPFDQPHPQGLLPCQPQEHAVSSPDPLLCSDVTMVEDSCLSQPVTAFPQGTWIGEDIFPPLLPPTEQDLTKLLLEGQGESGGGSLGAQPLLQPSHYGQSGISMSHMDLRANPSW
In words: Immunoblotting (Western blot) analysis of STAT6 degradation efficiency of degraders in treated cells. It counts as cell-based. The conditions noted are these: MOLM-16 cells, class symbols, read-out: DC50 S6 MOLM-16. Put shortly:
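Protein levels of STAT5 and STAT6 were assessed in cells cultured at 37 °C in 10% FBS medium after compound exposure, by quantitative fluorescent Western blotting normalised to equal loading and referenced to GAPDH.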
A word on the DC50: it is the midpoint of the concentration-degradation curve. `CC(C)(C)[C@H](NC(=O)c1cc2cc(C(F)(F)P(=O)(O)O)ccc2s1)C(=O)N1Cc2cc(OCC(=O)NCC#Cc3ccc4c(c3)C(=O)N(C3CCC(=O)NC3=O)C4=O)ccc2C[C@H]1C(=O)N1CCC[C@H](c2ccccc2)C1` (stereo partly drawn) [Compound 550, ((2-(((2S)-1-((3S)-7-(2-((3-(2-(2,6-dioxopiperidin-3-yl)-1,3-dioxoisoindolin-5-yl)prop-2-yn-1-yl)amino)-2-oxoethoxy)-3-((R)-3-phenylpiperidine-1-carbonyl)-3,4-dihydroisoquinolin-2(1H)-yl)-3,3-dimethyl-1-oxobutan-2-yl)carbamoyl)benzo[b]thiophen-5-yl)difluoromethyl)phosphonic acid]: the DC50 is more than 10 µM.

Take `CC(C)(C)[C@H](NC(=O)c1cc2cc(C(F)(F)P(=O)(O)O)ccc2s1)C(=O)N1Cc2cc(OCC(=O)NCCC#Cc3cccc4c3C(=O)N(C3CCC(=O)NC3=O)C4=O)ccc2C[C@H]1C(=O)N1CCC[C@H](c2ccccc2)C1` (stereo partly drawn) [Compound 551, ((2-(((2S)-1-((3S)-7-(2-((4-(2-(2,6-dioxopiperidin-3-yl)-1,3-dioxoisoindolin-4-yl)but-3-yn-1-yl)amino)-2-oxoethoxy)-3-((R)-3-phenylpiperidine-1-carbonyl)-3,4-dihydroisoquinolin-2(1H)-yl)-3,3-dimethyl-1-oxobutan-2-yl)carbamoyl)benzo[b]thiophen-5-yl)difluoromethyl)phosphonic acid]: the DC50 was more than 10 µM. For `CC(C)(C)[C@H](NC(=O)c1cc2cc(C(F)(F)P(=O)(O)O)ccc2s1)C(=O)N1Cc2cc(OCC(=O)NCCC#Cc3ccc4c(c3)C(=O)N(C3CCC(=O)NC3=O)C4=O)ccc2C[C@H]1C(=O)N1CCC[C@H](c2ccccc2)C1` (stereo partly drawn) [Compound 552, ((2-(((2S)-1-((3S)-7-(2-((4-(2-(2,6-dioxopiperidin-3-yl)-1,3-dioxoisoindolin-5-yl)but-3-yn-1-yl)amino)-2-oxoethoxy)-3-((R)-3-phenylpiperidine-1-carbonyl)-3,4-dihydroisoquinolin-2(1H)-yl)-3,3-dimethyl-1-oxobutan-2-yl)carbamoyl)benzo[b]thiophen-5-yl)difluoromethyl)phosphonic acid] the value was more than 10 µM; for `CC(C)(C)[C@H](NC(=O)c1cc2cc(C(F)(F)P(=O)(O)O)ccc2s1)C(=O)N1Cc2cc(OCC(=O)NCCCC#Cc3cccc4c3C(=O)N(C3CCC(=O)NC3=O)C4=O)ccc2C[C@H]1C(=O)N1CCC[C@H](c2ccccc2)C1` (stereo partly drawn) [Compound 553, ((2-(((2S)-1-((3S)-7-(2-((5-(2-(2,6-dioxopiperidin-3-yl)-1,3-dioxoisoindolin-4-yl)pent-4-yn-1-yl)amino)-2-oxoethoxy)-3-((R)-3-phenylpiperidine-1-carbonyl)-3,4-dihydroisoquinolin-2(1H)-yl)-3,3-dimethyl-1-oxobutan-2-yl)carbamoyl)benzo[b]thiophen-5-yl)difluoromethyl)phosphonic acid], more than 10 µM; for `CC(C)(C)[C@H](NC(=O)c1cc2cc(C(F)(F)P(=O)(O)O)ccc2s1)C(=O)N1Cc2cc(OCC(=O)NCCCC#Cc3ccc4c(c3)C(=O)N(C3CCC(=O)NC3=O)C4=O)ccc2C[C@H]1C(=O)N1CCC[C@H](c2ccccc2)C1` (stereo partly drawn) [Compound 554, ((2-(((2S)-1-((3S)-7-(2-((5-(2-(2,6-dioxopiperidin-3-yl)-1,3-dioxoisoindolin-5-yl)pent-4-yn-1-yl)amino)-2-oxoethoxy)-3-((R)-3-phenylpiperidine-1-carbonyl)-3,4-dihydroisoquinolin-2(1H)-yl)-3,3-dimethyl-1-oxobutan-2-yl)carbamoyl)benzo[b]thiophen-5-yl)difluoromethyl)phosphonic acid], more than 10 µM. For `CC(C)(C)[C@H](NC(=O)c1cc2cc(C(F)(F)P(=O)(O)O)ccc2s1)C(=O)N1Cc2cc(OCC(=O)NCCCCC#Cc3cccc4c3C(=O)N(C3CCC(=O)NC3=O)C4=O)ccc2C[C@H]1C(=O)N1CCC[C@H](c2ccccc2)C1` (stereo partly drawn) [Compound 555, ((2-(((2S)-1-((3S)-7-(2-((6-(2-(2,6-dioxopiperidin-3-yl)-1,3-dioxoisoindolin-4-yl)hex-5-yn-1-yl)amino)-2-oxoethoxy)-3-((R)-3-phenylpiperidine-1-carbonyl)-3,4-dihydroisoquinolin-2(1H)-yl)-3,3-dimethyl-1-oxobutan-2-yl)carbamoyl)benzo[b]thiophen-5-yl)difluoromethyl)phosphonic acid] the value was more than 10 µM; for `CC(C)(C)[C@H](NC(=O)c1cc2cc(C(F)(F)P(=O)(O)O)ccc2s1)C(=O)N1Cc2cc(OCC(=O)NCCCCC#Cc3ccc4c(c3)C(=O)N(C3CCC(=O)NC3=O)C4=O)ccc2C[C@H]1C(=O)N1CCC[C@H](c2ccccc2)C1` (stereo partly drawn) [Compound 556, ((2-(((2S)-1-((3S)-7-(2-((6-(2-(2,6-dioxopiperidin-3-yl)-1,3-dioxoisoindolin-5-yl)hex-5-yn-1-yl)amino)-2-oxoethoxy)-3-((R)-3-phenylpiperidine-1-carbonyl)-3,4-dihydroisoquinolin-2(1H)-yl)-3,3-dimethyl-1-oxobutan-2-yl)carbamoyl)benzo[b]thiophen-5-yl)difluoromethyl)phosphonic acid], more than 10 µM. For `CC(C)(C)[C@H](NC(=O)c1cc2cc(C(F)(F)P(=O)(O)O)ccc2s1)C(=O)N1Cc2cc(OCC(=O)NCCCCCC#Cc3cccc4c3C(=O)N(C3CCC(=O)NC3=O)C4=O)ccc2C[C@H]1C(=O)N1CCC[C@H](c2ccccc2)C1` (stereo partly drawn) [Compound 557, ((2-(((2S)-1-((3S)-7-(2-((7-(2-(2,6-dioxopiperidin-3-yl)-1,3-dioxoisoindolin-4-yl)hept-6-yn-1-yl)amino)-2-oxoethoxy)-3-((R)-3-phenylpiperidine-1-carbonyl)-3,4-dihydroisoquinolin-2(1H)-yl)-3,3-dimethyl-1-oxobutan-2-yl)carbamoyl)benzo[b]thiophen-5-yl)difluoromethyl)phosphonic acid] the value was more than 10 µM; for `CC(C)(C)[C@H](NC(=O)c1cc2cc(C(F)(F)P(=O)(O)O)ccc2s1)C(=O)N1Cc2cc(OCC(=O)NCCCCCC#Cc3ccc4c(c3)C(=O)N(C3CCC(=O)NC3=O)C4=O)ccc2C[C@H]1C(=O)N1CCC[C@H](c2ccccc2)C1` (stereo partly drawn) [Compound 558, ((2-(((2S)-1-((3S)-7-(2-((7-(2-(2,6-dioxopiperidin-3-yl)-1,3-dioxoisoindolin-5-yl)hept-6-yn-1-yl)amino)-2-oxoethoxy)-3-((R)-3-phenylpiperidine-1-carbonyl)-3,4-dihydroisoquinolin-2(1H)-yl)-3,3-dimethyl-1-oxobutan-2-yl)carbamoyl)benzo[b]thiophen-5-yl)difluoromethyl)phosphonic acid], more than 10 µM.

Regarding `CC(C)(C)[C@H](NC(=O)c1cc2cc(C(F)(F)P(=O)(O)O)ccc2s1)C(=O)N1Cc2cc(OCC(=O)NCCCCCCCCC#Cc3cccc4c3C(=O)N(C3CCC(=O)NC3=O)C4=O)ccc2C[C@H]1C(=O)N1CCC[C@H](c2ccccc2)C1` (stereo partly drawn) [Compound 559, ((2-(((2S)-1-((3S)-7-(2-((10-(2-(2,6-dioxopiperidin-3-yl)-1,3-dioxoisoindolin-4-yl)dec-9-yn-1-yl)amino)-2-oxoethoxy)-3-((R)-3-phenylpiperidine-1-carbonyl)-3,4-dihydroisoquinolin-2(1H)-yl)-3,3-dimethyl-1-oxobutan-2-yl)carbamoyl)benzo[b]thiophen-5-yl)difluoromethyl)phosphonic acid], the DC50 is more than 10 µM. Consider `CC(C)(C)[C@H](NC(=O)c1cc2cc(C(F)(F)P(=O)(O)O)ccc2s1)C(=O)N1Cc2cc(OCC(=O)NCCCCCCCCC#Cc3ccc4c(c3)C(=O)N(C3CCC(=O)NC3=O)C4=O)ccc2C[C@H]1C(=O)N1CCC[C@H](c2ccccc2)C1` (stereo partly drawn) [Compound 560, ((2-(((2S)-1-((3S)-7-(2-((10-(2-(2,6-dioxopiperidin-3-yl)-1,3-dioxoisoindolin-5-yl)dec-9-yn-1-yl)amino)-2-oxoethoxy)-3-((R)-3-phenylpiperidine-1-carbonyl)-3,4-dihydroisoquinolin-2(1H)-yl)-3,3-dimethyl-1-oxobutan-2-yl)carbamoyl)benzo[b]thiophen-5-yl)difluoromethyl)phosphonic acid], for which the DC50 is more than 10 µM.

For `CC(C)(C)[C@H](NC(=O)c1cc2cc(C(F)(F)P(=O)(O)O)ccc2s1)C(=O)N1Cc2cc(OCC(=O)NCCCCCCCCCC#Cc3cccc4c3C(=O)N(C3CCC(=O)NC3=O)C4=O)ccc2C[C@H]1C(=O)N1CCC[C@H](c2ccccc2)C1` (stereo partly drawn) [Compound 561, ((2-(((2S)-1-((3S)-7-(2-((11-(2-(2,6-dioxopiperidin-3-yl)-1,3-dioxoisoindolin-4-yl)undec-10-yn-1-yl)amino)-2-oxoethoxy)-3-((R)-3-phenylpiperidine-1-carbonyl)-3,4-dihydroisoquinolin-2(1H)-yl)-3,3-dimethyl-1-oxobutan-2-yl)carbamoyl)benzo[b]thiophen-5-yl)difluoromethyl)phosphonic acid], the DC50 was more than 10 µM.
